Here are results for two compounds from patent US20210244858A1, “SOFT TISSUE FILLER COMPOSITION WITH HYALURONIC ACID AND BENZYL ALCOHOL” (Prollenium Medical Technologies, Inc., priority 2018, published 2021).

The structures appear in SMILES notation. Read-outs that look alike come from different tables or passages of the source.

Data set [1] is classed as physicochemical. Conditions: for Benzyl alcohol mg/g (55° C.) / Lidocaine mg/g (45° C.): in REVANESSE dermal filler. The method, then:
The benzyl alcohol product was held for 12 weeks at 55° C. which approximates 2 years shelf life; the amount of benzyl alcohol degraded by only 5.75%. In contrast, the amount of lidocaine degraded by 11.61% over 12 weeks at 45° C., which approximates to 1 year shelf life.

For data set [2] the following is noted: 0.05% to 5% solution; cited from earlier work.
The conditions of data set [3]: 5% solution, animal studies; cited from earlier work.
For data set [4] the following is noted: cited from earlier work.

`OCc1ccccc1` [Benzyl alcohol, benzyl alcohol]: the “stability compared with lidocaine” value in data set [1] is “better than lidocaine”. Besides, the “Benzyl alcohol mg/g (55° C.)” value was 8.7 mg/g in data set [1] (0 weeks), 8.7 mg/g in data set [1] (4 weeks), 8.6 mg/g in data set [1] (8 weeks) and 8.2 mg/g in data set [1] (12 weeks). In addition, in data set [1] (12 weeks, 8.7 mg/g), the amount degraded is on record as 5.75%. Also, in data set [2], the anesthetic effectiveness result is “considered somewhat effect”. In data set [3], the safety result was “deemed safe”. For the same compound, the “injection pain and anesthesia duration” value in data set [4] (in combination with lidocaine (1%)) is recorded as “reduces injection pain as well as anesthesia duration”. Besides, the “duration of anesthetic effect compared with lidocaine” value in data set [4] (in vivo) is reported as “shorter duration than lidocaine”. In addition, the “injection pain compared with plain lidocaine” value in data set [4] (injection) was “significantly less painful”.
As for `CCN(CC)CC(=O)Nc1c(C)cccc1C` [Lidocaine, lidocaine, reference compound], the “Lidocaine mg/g (45° C.)” value in data set [1] (0 weeks) was determined as 3.1 mg/g; in data set [1] (4 weeks), 2.9 mg/g; in data set [1] (8 weeks) it was 2.82 mg/g; in data set [1] (12 weeks), 2.74 mg/g. For the same compound, in data set [1] (12 weeks, 3.1 mg/g), the amount degraded is reported as 11.61%.
